Measurements published in ChEMBL document CHEMBL3792297, “Studies on phenothiazines: New microtubule-interacting compounds with phenothiazine A-ring as potent antineoplastic agents” (Bioorg Med Chem, 2016).

Tests used:
U-251 = assay: Growth inhibition of human U251 cells at 10 uM after 48 hrs by SRB assay relative to control; assay type: functional; conditions: U-251, 48 h, read-out: GI
[1] = Growth inhibition of human HOP62 cells at 10 uM after 48 hrs by SRB assay relative to control; assay type: functional; conditions: HOP-62, 48 h, read-out: GI
T47D = assay: Growth inhibition of human T47D cells at 10 uM after 48 hrs by SRB assay relative to control; assay type: functional; conditions: read-out: GI
[2] = Growth inhibition of human SF539 cells after 48 hrs by SRB assay; assay type: functional; conditions: SF-539, 48 h
M14 [3] = assay: Growth inhibition of human M14 cells after 48 hrs by SRB assay; assay type: functional; conditions: M14, 48 h
[4] = Growth inhibition of human NCI-ADR-RES cells at 10 uM after 48 hrs by SRB assay relative to control; assay type: functional; conditions: read-out: GI
Malme-3M = assay: Growth inhibition of human MALME-3M cells at 10 uM after 48 hrs by SRB assay relative to control; assay type: functional; conditions: read-out: GI
SK-MEL-2 [5] = assay: Growth inhibition of human SK-MEL-2 cells at 10 uM after 48 hrs by SRB assay relative to control; assay type: functional; conditions: SK-MEL-2, 48 h, read-out: GI
[6] = Growth inhibition of human PC3 cells after 48 hrs by SRB assay; assay type: functional; conditions: PC-3, 48 h
MDA-MB-435 = assay: Growth inhibition of human MDA-MB-435 cells after 48 hrs by SRB assay; assay type: functional; conditions: MDA-MB-435, 48 h
[7] = Growth inhibition of human NCI-ADR-RES cells after 48 hrs by SRB assay; assay type: functional
MCF7 = assay: Growth inhibition of human MCF7 cells after 48 hrs by SRB assay; assay type: functional; conditions: MCF7, 48 h
[8] = Growth inhibition of human HCT15 cells after 48 hrs by SRB assay; assay type: functional; conditions: HCT-15, 48 h
[9] = Growth inhibition of human Hs 578T cells after 48 hrs by SRB assay; assay type: functional
SR = assay: Growth inhibition of human SR cells after 48 hrs by SRB assay; assay type: functional
Ovis aries = species on record: Ovis aries; assay: Inhibition of sheep brain tubulin polymerization at 100 uM by DAPI staining-based fluorimetric method
[10] = Growth inhibition of human COLO205 cells after 48 hrs by SRB assay; assay type: functional; conditions: COLO 205, 48 h
[11] = Growth inhibition of human DU145 cells at 10 uM after 48 hrs by SRB assay relative to control; assay type: functional; conditions: DU-145, 48 h, read-out: GI
SK-MEL-5 = assay: Growth inhibition of human SK-MEL-5 cells after 48 hrs by SRB assay; assay type: functional; conditions: SK-MEL-5, 48 h
[12] = Growth inhibition of human SF295 cells after 48 hrs by SRB assay; assay type: functional; conditions: SF-295, 48 h
[13] = Growth inhibition of human Hs 578T cells at 10 uM after 48 hrs by SRB assay relative to control; assay type: functional; conditions: read-out: GI
[14] = Growth inhibition of human RXF393 cells at 10 uM after 48 hrs by SRB assay relative to control; assay type: functional; conditions: RXF 393, 48 h, read-out: GI
[15] = Growth inhibition of human SKOV3 cells after 48 hrs by SRB assay; assay type: functional; conditions: SK-OV-3, 48 h
[16] = Growth inhibition of human OVCAR8 cells at 10 uM after 48 hrs by SRB assay relative to control; assay type: functional; conditions: OVCAR-8, 48 h, read-out: GI
[17] = Growth inhibition of human SF268 cells at 10 uM after 48 hrs by SRB assay relative to control; assay type: functional; conditions: SF-268, 48 h, read-out: GI
[18] = Growth inhibition of human LOXIMVI cells at 10 uM after 48 hrs by SRB assay relative to control; assay type: functional; conditions: LOX IMVI, read-out: GI
SN12C = assay: Growth inhibition of human SN12C cells at 10 uM after 48 hrs by SRB assay relative to control; assay type: functional; conditions: read-out: GI
NCI-H522 = assay: Growth inhibition of human NCI-H522 cells after 48 hrs by SRB assay; assay type: functional; conditions: NCI-H522, 48 h
[19] = Growth inhibition of human SF295 cells at 10 uM after 48 hrs by SRB assay relative to control; assay type: functional; conditions: SF-295, 48 h, read-out: GI
[20] = Growth inhibition of human HCT116 cells after 48 hrs by SRB assay; assay type: functional; conditions: HCT-116, 48 h
[21] = Growth inhibition of human OVCAR3 cells at 10 uM after 48 hrs by SRB assay relative to control; assay type: functional; conditions: OVCAR-3, 48 h, read-out: GI
[22] = Growth inhibition of human HCC2998 cells after 48 hrs by SRB assay; assay type: functional; conditions: HCC 2998, 48 h
A498 = assay: Growth inhibition of human A498 cells after 48 hrs by SRB assay; assay type: functional; conditions: A498, 48 h
[23] = Growth inhibition of human HCC2998 cells at 10 uM after 48 hrs by SRB assay relative to control; assay type: functional; conditions: HCC 2998, 48 h, read-out: GI
[24] = Growth inhibition of human MOLT4 cells at 10 uM after 48 hrs by SRB assay relative to control; assay type: functional; conditions: MOLT-4, 48 h, read-out: GI
K562 = assay: Growth inhibition of human K562 cells after 48 hrs by SRB assay; assay type: functional; conditions: K562, 48 h
[25] = Growth inhibition of human Caki1 cells after 48 hrs by SRB assay; assay type: functional; conditions: CAKI-1, 48 h
[26] = Growth inhibition of human RPMI8226 cells at 10 uM after 48 hrs by SRB assay relative to control; assay type: functional; conditions: RPMI-8226, 48 h, read-out: GI
SK-MEL-2 [27] = assay: Growth inhibition of human SK-MEL-2 cells after 48 hrs by SRB assay; assay type: functional; conditions: SK-MEL-2, 48 h
ACHN = assay: Growth inhibition of human ACHN cells at 10 uM after 48 hrs by SRB assay relative to control; assay type: functional; conditions: read-out: GI
[28] = Growth inhibition of human OVCAR8 cells after 48 hrs by SRB assay; assay type: functional; conditions: OVCAR-8, 48 h
[29] = Growth inhibition of human SNB75 cells at 10 uM after 48 hrs by SRB assay relative to control; assay type: functional; conditions: SNB-75, 48 h, read-out: GI
[30] = Growth inhibition of human UO31 cells at 10 uM after 48 hrs by SRB assay relative to control; assay type: functional; conditions: UO-31, 48 h, read-out: GI
[31] = Growth inhibition of human UO31 cells after 48 hrs by SRB assay; assay type: functional; conditions: UO-31, 48 h
M14 [32] = assay: Growth inhibition of human M14 cells at 10 uM after 48 hrs by SRB assay relative to control; assay type: functional; conditions: M14, 48 h, read-out: GI
[33] = Growth inhibition of human OVCAR3 cells after 48 hrs by SRB assay; assay type: functional; conditions: OVCAR-3, 48 h
[34] = Growth inhibition of human OVCAR5 cells after 48 hrs by SRB assay; assay type: functional; conditions: OVCAR-5, 48 h
[35] = Inhibition of sheep brain tubulin polymerization by DAPI staining-based fluorimetric method; parameters: species or system Ovis aries

## COc1ccc(C(=O)N2c3ccccc3Sc3ccccc32)c(OC)c1
U-251
  inhibition of growth at 10 µM: 75%
[1]
  inhibition of growth at 10 µM: 52%
T47D
  inhibition of growth at 10 µM: 59%
[2]
  GI50: 0.333 µM
M14 [3]
  GI50: 0.359 µM
[4]
  inhibition of growth at 10 µM: 100%
Malme-3M
  inhibition of growth at 10 µM: 33%
SK-MEL-2 [5]
  inhibition of growth at 10 µM: 62%
[6]
  GI50: 0.43 µM
MDA-MB-435
  GI50: 0.212 µM
[7]
  GI50: 0.4 µM
MCF7
  GI50: 0.45 µM
[8]
  GI50: 0.464 µM
[9]
  GI50: 0.482 µM
SR
  GI50: 0.562 µM
Ovis aries
  inhibition: 53%
[10]
  GI50: 0.333 µM
[11]
  inhibition of growth at 10 µM: 90%
SK-MEL-5
  GI50: 0.408 µM
[12]
  GI50: 0.484 µM
[13]
  inhibition of growth at 10 µM: 85%
[14]
  inhibition of growth at 10 µM: 100%
[15]
  GI50: 0.715 µM
[16]
  inhibition of growth at 10 µM: 72%
[17]
  inhibition of growth at 10 µM: 63%
[18]
  inhibition of growth at 10 µM: 62%
SN12C
  inhibition of growth at 10 µM: 48%
NCI-H522
  GI50: 0.343 µM
[19]
  inhibition of growth at 10 µM: 88%
[20]
  GI50: 0.452 µM
[21]
  inhibition of growth at 10 µM: 100%
[22]
  GI50: 1.49 µM
A498
  GI50: 0.307 µM
[23]
  inhibition of growth at 10 µM: 87%
[24]
  inhibition of growth at 10 µM: 88%
K562
  GI50: 0.381 µM
[25]
  GI50: 0.574 µM
[26]
  inhibition of growth at 10 µM: 84%
SK-MEL-2 [27]
  GI50: 0.585 µM
ACHN
  inhibition of growth at 10 µM: 57%
[28]
  GI50: 0.749 µM
[29]
  inhibition of growth at 10 µM: 82%
[30]
  inhibition of growth at 10 µM: 52%
[31]
  GI50: 0.739 µM
M14 [32]
  inhibition of growth at 10 µM: 100%
[33]
  GI50: 0.322 µM
[34]
  GI50: 10 µM

## COc1ccc(C(=O)N2c3ccccc3Sc3ccccc32)cc1F
U-251
  inhibition of growth at 10 µM: 90%
[1]
  inhibition of growth at 10 µM: 50%
T47D
  inhibition of growth at 10 µM: 49%
[2]
  GI50: 0.218 µM
M14 [3]
  GI50: 0.232 µM
[4]
  inhibition of growth at 10 µM: 100%
Malme-3M
  inhibition of growth at 10 µM: 45%
SK-MEL-2 [5]
  inhibition of growth at 10 µM: 100%
MDA-MB-435
  GI50: 0.036 µM
[7]
  GI50: 0.2 µM
MCF7
  GI50: 0.346 µM
[8]
  GI50: 0.287 µM
[9]
  GI50: 0.193 µM
SR
  GI50: 0.162 µM
Ovis aries
  inhibition: 99%
[10]
  GI50: 0.236 µM
[11]
  inhibition of growth at 10 µM: 95%
SK-MEL-5
  GI50: 0.443 µM
[12]
  GI50: 0.251 µM
[13]
  inhibition of growth at 10 µM: 100%
[14]
  inhibition of growth at 10 µM: 84%
[15]
  GI50: 0.306 µM
[16]
  inhibition of growth at 10 µM: 97%
[17]
  inhibition of growth at 10 µM: 58%
[18]
  inhibition of growth at 10 µM: 64%
SN12C
  inhibition of growth at 10 µM: 66%
NCI-H522
  GI50: 0.114 µM
[19]
  inhibition of growth at 10 µM: 89%
[20]
  GI50: 0.358 µM
[21]
  inhibition of growth at 10 µM: 100%
[22]
  GI50: 0.47 µM
A498
  GI50: 0.219 µM
[23]
  inhibition of growth at 10 µM: 82%
[24]
  inhibition of growth at 10 µM: 67%
K562
  GI50: 0.11 µM
[25]
  GI50: 0.465 µM
[26]
  inhibition of growth at 10 µM: 44%
[35]
  IC50: 11.8 µM
SK-MEL-2 [27]
  GI50: 0.352 µM
ACHN
  inhibition of growth at 10 µM: 50%
[28]
  GI50: 0.42 µM
[29]
  inhibition of growth at 10 µM: 81%
[30]
  inhibition of growth at 10 µM: 50%
[31]
  GI50: 0.725 µM
M14 [32]
  inhibition of growth at 10 µM: 92%
[33]
  GI50: 0.249 µM
[34]
  GI50: 0.418 µM
